Experimental data reported in patent US20100286247A1, “Methods of Protection from Oxidative Stress” (Trustees of Boston University, priority 2005, published 2010).
{P} = phosphate

How the values were obtained:
[1] = test system: GPX mRNA; assay: Northern blot analysis of antioxidant enzyme mRNA: GPX; type: cell-based, human; settings: 100 μM pTT, 8-72 hours
Description: Cell culture followed previously published methods.^92 Primary human newborn dermal fibroblasts were cultured from neonatal circumcised foreskin specimens. The skin samples were treated overnight in a 0.25% trypsin solution at 4° C. to separate the epidermis from the dermis. The separated dermis was then cut into pieces and plated onto etched plastic tissue culture dishes. Primary culture medium consisted of DMEM supplemented with 10% bovine CS, 50 U/ml penicillin and 50 μg/ml streptomycin sulfate. […] Secondary culture medium consisted of DMEM supplemented with 10% CS.
Purified 5′-phosphorylated thymidine dinucleotides (pTT) (Midland Certified Reagents, Inc., Texas) purified by gel filtration and analyzed by mass spectroscopy, were obtained in lyophilized form. […] The stock solution was syringe filter-sterilized through a 0.2 μm pore filter and spectrophotometrically analyzed (absorbance at 260 and 280 nm) to determine the concentration, and frozen in aliquots at −20° C. […]
Cells were harvested in Trizol (Gibco BRL, Gaithersburg, Md.) and stored at −70° C. […] RNA solutions were measured by spectrophotometer readings at 260 nm and 280 nm to determine concentration and purity. […]
Northern and western films as well as stained membranes and pictures of ethidium bromide-stained gels were digitally scanned and analyzed by densitometry. […]

[2] = test system: extracellular H2O2 from newborn fibroblasts; assay: Extracellular hydrogen peroxide generation assay (horseradish peroxidase); type: cell-based, human; settings: 100 μM, two days treatment
Description: This assay was described by Ruch et al. for measurement of H2O2 production by macrophages and neutrophils^93 and modified for cultured cytokine-stimulated human lung fibroblasts by Thannickal et al.^94 Briefly, it utilizes horseradish peroxidase (HRP) to catalyze H2O2-dependent dimerization of tyrosine in homovanillic acid (HVA), where the H2O2 is the extracellular fraction of H2O2 produced by stimulated cells. Fibroblasts were seeded at 0.5×10^4 cells/cm^2 and treated the following day with diluent, 100 μM pTT, 100 μM pAA, 40 μM TO or 40 μM TOC1 for two days. These doses were determined in previous studies to be the optimal effective doses to achieve p53 induction and cell cycle arrest in fibroblasts within the parameters used in these investigations (cell seeding density and time of treatment).^13,142 An assay medium consisting of sterile Hanks' Balanced Salt Solution (HBSS), HRP (5 U/ml) and HVA ([…]) was added to cells after removal of the T-oligo-supplemented medium. […] Each sample was fluorometrically analyzed by excitation of the dimerized tyrosine product at 323 nm with emission measured at 423 nm (Perkin-Elmer LS-5B Luminescence Spectrometer). The same cells were then harvested and counted by Coulter Counter. […] Using the cell count results, H2O2 production was expressed as a function of time and cell number (pmol/min/million cells). […]

[3] = test system: S91 melanoma cells, cultured melanocytes, guinea pig skin; settings: solutions of pTT; cited from earlier work
[4] = 100 μM pTT, in vitro and in mouse models in vivo; cited from earlier work
[5] = test system: phospho-p53 (Ser-15); assay: Western blot of activated p53 (serine-15 phosphorylation); type: cell-based, human; settings: by 36-48 hours, sustained through 72 hours; 40 μM TO, 100 μM pTT
Description: Western blot analysis of proteins from cells treated and harvested in parallel with DCF time course studies was conducted as described above. Membranes were reacted with antibodies to total p53/DO-1 (1:1000 dilution, Oncogene Research Products, Cambridge, Mass.), anti-phoso-p53 (Ser-15) (1:1000 dilution, Cell Signaling Technology, Beverly, Mass.), and p21/Cip1/Waf1 (1:500 dilution, Transduction Laboratories, Lexington, Ky.), followed by appropriate secondary antibodies diluted 1:2000.

[6] = test system: human dermal fibroblasts; settings: treatment for 7 days, Li et al.; cited from earlier work

Substance | GPX mRNA level compared to diluent [1] | extracellular H2O2 production [2] | melanin production [3] | nucleotide excision DNA repair and UV resistance [4] | phospho-p53-ser15 response, TO vs pTT [5] | cells expressing senescence-associated-β-galactosidase after prolonged treatment [6]
5′-phosphorylated thymidine dinucleotides [pTT] | remain unchanged | does not yield extracellular H2O2 | enhanced melanin production | stimulates enhanced nucleotide excision DNA repair and resistance to subsequent UV irradiation | – | –
pGTTAGGGTTAG (5' {P}, sugars by position and backbone not given here) [TO] | – | – | – | – | greater than to pTT | over 60%
